Results from patent publication US20100311714A1, “1H-IMIDAZO[4,5-c]QUINOLINONE COMPOUNDS” (priority 2009, published 2010).
Read-outs that look alike come from different tables or passages of the source.

Target: T1, PI3K alfa (Homo sapiens, UniProt P42336)
T1 construct: His tag (C); made in house; host or cells: baculovirus BV1075; Tn5 (Trichoplusia ni) or TiniPro insect cells
Assay: PI3K alpha kinase assay (Kinase-Glo luminescence)
Format: biochemical
Description: In a more preferred assay, the kinase reaction is performed in a final volume of 10 μL per well of a low volume non binding CORNING, 384 well black plate (Cat. No. #3676). The final concentrations of ATP and phosphatidyl inositol (PI) in the assay are 1 μM and 10 μg/mL respectively. The reaction is started by the addition of ATP.
The components of the assay are added per well as follows:
50 nL test compounds in 90% DMSO per well, in columns 1-20, 8 concentrations (⅓ and 1/3.33 serial dilution step) in single. • Low control: […] of 90% DMSO in half the wells of columns 23-24 (0.45% in final). • High control: 50 nL of reference compound (e.g. compound of Example 7 in WO 2006/122806) in the other half of columns 23-24 (2.5 μM in final). • Standard: 50 nL of reference compound as just mentioned diluted as the test compounds in columns 21-22 • 20 mL ‘buffer’ are prepared per assay: • 200 μL of 1M TRIS HCl pH7.5 (10 mM in final) • 60 μL of 1M MgCl2 (3 mM in final) • 500 μL of 2M NaCl (50 mM in final) • 100 μL of 10% CHAPS (0.05% in final) • 200 μL of 100 mM DTT (1 mM in final) • 18.94 mL of nanopure water • 10 mL ‘PI’ are prepared per assay: • 200 μL of 1 mg/ml L-alpha-Phosphatidylinositol (Liver Bovine, Avanti Polar Lipids Cat. No. 840042C MW=909.12) prepared in 3% OctylGlucoside (10 μg/ml in final) • 9.8 mL of ‘buffer’ • 10 mL ‘ATP’ are prepared per assay: • 6.7 μL of 3 mM stock of ATP giving a final concentration of 1 μM per well • 10 mL of ‘buffer’ • 2.5 mL of each PI3K construct are prepared per assay in ‘PI’ with the following final concentration: • 10 nM PI3K alfa EMV B1075 • 25 nM beta EMV BV949 • 10 nM delta EMV BV1060 • 150 nM gamma EMV BV950 • 5 μL of ‘PI/PI3K’ are added per well. • 5 μl ‘ATP’ are added per well to start the reaction. • The plates are then incubated at room temperature for 60 minutes (alfa, beta, delta) or 120 minutes (gamma). • The reaction is terminated by the addition of 10 μL Kinase-Glo (Promega Cat. No. #6714). • The assay plates are read after 10 minutes in Synergy 2 reader (BioTek, Vermont USA) with an integration time of 100 milliseconds and sensitivity set to 191. • Output: The High control is around 60′000 counts and the Low control is 30′000 or lower • This luminescence assay gives a useful Z′ ratio between 0.4 and 0.7
Two different constructs, BV 1052 and BV 1075, are used to generate the PI3 Kinase α proteins for compound screening.
PI3K alpha is purified in three chromatographic steps: immobilized metal affinity chromatography on a Ni Sepharose resin (GE Healthcare, belonging to General Electric Company, Fairfield, Conn., USA), gel filtration utilizing a Superdex 200 26/60 column (GE Healthcare), and finally a cation exchange step on a SP-XL column (GE Healthcare). All buffers are chilled to 4° C. and lysis is performed chilled on ice. Column fractionation is performed rapidly at room temperature.
IC50 is determined by a four parameter curve fitting routine that comes along with “excel fit”. A 4 Parameter logistic equation is used to calculate IC50 values (IDBS XLfit) of the percentage inhibition of each compound at 8 concentrations (usually 10, 3.0, 1.0, 0.3, 0.1, 0.030, 0.010 and 0.003 μM). Alternatively, IC50 values are calculated using idbsXLfit model 204, which is a 4 parameter logistic model.

T1 sequence (P42336 with tags, fused parts or gaps limits assumed): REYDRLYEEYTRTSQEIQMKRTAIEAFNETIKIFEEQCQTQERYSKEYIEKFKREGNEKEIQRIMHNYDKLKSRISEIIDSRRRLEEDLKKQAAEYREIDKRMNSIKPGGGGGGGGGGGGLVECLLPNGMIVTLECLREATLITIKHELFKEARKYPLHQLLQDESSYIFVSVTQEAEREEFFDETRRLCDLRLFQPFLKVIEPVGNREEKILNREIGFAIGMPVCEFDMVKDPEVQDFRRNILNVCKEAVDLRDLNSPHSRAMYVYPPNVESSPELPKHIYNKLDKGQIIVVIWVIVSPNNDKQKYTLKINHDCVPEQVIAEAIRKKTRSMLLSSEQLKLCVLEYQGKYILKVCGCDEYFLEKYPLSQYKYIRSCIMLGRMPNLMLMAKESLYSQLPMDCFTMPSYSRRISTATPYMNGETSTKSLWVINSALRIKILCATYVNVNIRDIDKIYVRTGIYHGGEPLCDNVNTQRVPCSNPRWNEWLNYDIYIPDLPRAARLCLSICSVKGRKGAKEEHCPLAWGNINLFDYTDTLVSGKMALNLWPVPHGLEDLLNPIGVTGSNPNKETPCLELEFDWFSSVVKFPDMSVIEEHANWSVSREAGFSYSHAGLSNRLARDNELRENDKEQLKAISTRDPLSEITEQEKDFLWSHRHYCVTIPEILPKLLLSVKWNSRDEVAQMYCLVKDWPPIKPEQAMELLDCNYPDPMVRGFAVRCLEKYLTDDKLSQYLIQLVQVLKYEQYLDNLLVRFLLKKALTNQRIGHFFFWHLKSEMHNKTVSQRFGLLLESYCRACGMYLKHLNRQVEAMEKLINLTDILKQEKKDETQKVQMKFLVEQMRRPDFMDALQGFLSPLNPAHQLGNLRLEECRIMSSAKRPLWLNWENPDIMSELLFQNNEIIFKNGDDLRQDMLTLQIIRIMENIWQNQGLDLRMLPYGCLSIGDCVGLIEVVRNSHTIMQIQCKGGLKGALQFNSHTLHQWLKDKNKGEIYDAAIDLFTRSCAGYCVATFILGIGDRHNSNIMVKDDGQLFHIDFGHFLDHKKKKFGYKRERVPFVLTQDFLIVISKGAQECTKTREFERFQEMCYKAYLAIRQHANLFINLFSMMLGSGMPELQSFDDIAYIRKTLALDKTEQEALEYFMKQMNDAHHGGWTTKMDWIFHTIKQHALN

Row | Compound | IC50 (read-out: EPK_PI3Kalfa/IC50) | IC50 (read-out: PI3Kalfa/IC50)
1 | Cc1nc(C(C)(C)O)ccc1-n1c(=O)n(C)c2cnc3ccc(-c4cnc(N)c(C(F)(F)F)c4)cc3c21 [Example 31.5, 8-(6-Amino-5-trifluoromethyl-pyridin-3-yl)-1-[6-(1-hydroxy-1-methyl-ethyl)-2-methyl-pyridin-3-yl]-3-methyl-1,3-dihydro-imidazo[4,5-c]quinolin-2-one] | 0.006 µM | –
2 | CCOc1ccc(-c2ccc3ncc4c(c3c2)n(-c2ccc(C(C)(C)O)nc2C)c(=O)n4C)cn1 [Example 31.4, 8-(6-Ethoxy-pyridin-3-yl)-1-[6-(1-hydroxy-1-methyl-ethyl)-2-methyl-pyridin-3-yl]-3-methyl-1,3-dihydro-imidazo[4,5-c]quinolin-2-one] | 0.084 µM | –
3 | Cc1ncccc1-n1c(=O)n(C)c2cnc3ccc(-c4cncc(N)c4)cc3c21 [Example 2.25, 8-(5-Amino-pyridin-3-yl)-3-methyl-1-(2-methyl-pyridin-3-yl)-1,3-dihydro-imidazo[4,5-c]quinolin-2-one] | 0.064 µM | –
4 | Cc1ccncc1-n1c(=O)n(C)c2cnc3ccc(-c4ccc(CO)nc4)cc3c21 [Example 4.1, 8-(6-Hydroxymethyl-pyridin-3-yl)-3-methyl-1-(4-methyl-pyridin-3-yl)-1,3-dihydro-imidazo[4,5-c]quinolin-2-one] | – | 0.23 µM
5 | CNc1ncc(-c2ccc3ncc4c(c3c2)n(-c2ccc(N3CC[C@H](O)C3)nc2C)c(=O)n4C)cn1 [Example 32.1, 1-[6-((S)-3-Hydroxy-pyrrolidin-1-yl)-2-methyl-pyridin-3-yl]-3-methyl-8-(2-methylamino-pyrimidin-5-yl)-1,3-dihydro-imidazo[4,5-c]quinolin-2-one] | 0.017 µM | –
6 | COc1ccc(-c2ccc3ncc4c(c3c2)n(-c2cccnc2C)c(=O)n4C)cc1OC [Example 2.9, 8-(3,4-Dimethoxy-phenyl)-3-methyl-1-(2-methyl-pyridin-3-yl)-1,3-dihydro-imidazo[4,5-c]quinolin-2-one] | – | 0.012 µM
7 | Cc1cccnc1-n1c(=O)n(C)c2cnc3ccc(-c4ccc(N(C)C)nc4)cc3c21 [Example 3.11, 8-(6-Dimethylamino-pyridin-3-yl)-3-methyl-1-(3-methyl-pyridin-2-yl)-1,3-dihydro-imidazo[4,5-c]quinolin-2-one] | – | 0.321 µM
8 | COCc1ncc(-c2ccc3ncc4c(c3c2)n(-c2ccc(N3CCC3)nc2C)c(=O)n4C)cc1OC [Example 23.6, 1-(6-Azetidin-1-yl-2-methyl-pyridin-3-yl)-8-(5-methoxy-6-methoxymethyl-pyridin-3-yl)-3-methyl-1,3-dihydro-imidazo[4,5-c]quinolin-2-one] | 0.044 µM | –
9 | CNC(=O)c1ccc(-c2ccc3ncc4c(c3c2)n(-c2ncccc2C)c(=O)n4C)cc1 [Example 3.5, N-Methyl-4-[3-methyl-1-(3-methyl-pyridin-2-yl)-2-oxo-2,3-dihydro-1H-imidazo[4,5-c]quinolin-8-yl]-benzamide] | – | 0.053 µM
10 | CCOc1cc(-c2ccc3ncc4c(c3c2)n(-c2ccc(N3CCC3)nc2C)c(=O)n4C)cnc1COC [Example 23.5, 1-(6-Azetidin-1-yl-2-methyl-pyridin-3-yl)-8-(5-ethoxy-6-methoxymethyl-pyridin-3-yl)-3-methyl-1,3-dihydro-imidazo[4,5-c]quinolin-2-one] | 0.021 µM | –
11 | Cc1nc(N2CCC2)ccc1-n1c(=O)n(C)c2cnc3ccc(-c4cncc(C(C)(C)O)c4)cc3c21 [Example 23.3, 1-(6-Azetidin-1-yl-2-methyl-pyridin-3-yl)-8-[5-(1-hydroxy-1-methyl-ethyl)-pyridin-3-yl]-3-methyl-1,3-dihydro-imidazo[4,5-c]quinolin-2-one] | 0.007 µM | –
12 | Cc1nc(C(C)(C)O)ccc1-n1c(=O)n(C)c2cnc3ccc(-c4cncc(C5(C#N)CCC5)c4)cc3c21 [Example 31.8, 1-(5-{1-[6-(1-Hydroxy-1-methyl-ethyl)-2-methyl-pyridin-3-yl]-3-methyl-2-oxo-2,3-dihydro-1H-imidazo[4,5-c]quinolin-8-yl}-pyridin-3-yl)-cyclobutanecarbonitrile] | 0.031 µM | –
13 | CCNc1cc(-c2ccc3ncc4c(c3c2)n(-c2ccc(N3CC(O)C3)nc2C)c(=O)n4C)cnc1CO [Example 29.2, 8-(5-Ethylamino-6-hydroxymethyl-pyridin-3-yl)-1-[6-(3-hydroxy-azetidin-1-yl)-2-methyl-pyridin-3-yl]-3-methyl-1,3-dihydro-imidazo[4,5-c]quinolin-2-one] | 0.009 µM | –
14 | Cc1nc(N2CCN(C)C(=O)C2)ccc1-n1c(=O)n(C)c2cnc3ccc(-c4cnc(N)c(C(F)(F)F)c4)cc3c21 [Example 21.1, 8-(6-Amino-5-trifluoromethyl-pyridin-3-yl)-3-methyl-1-[2-methyl-6-(4-methyl-3-oxo-piperazin-1-yl)-pyridin-3-yl]-1,3-dihydro-imidazo[4,5-c]quinolin-2-one] | 0.005 µM | –
15 | COc1ccc(-c2ccc3ncc4c(c3c2)n(-c2ncccc2C)c(=O)n4C)cc1OC [Example 3.10, 8-(3,4-Dimethoxy-phenyl)-3-methyl-1-(3-methyl-pyridin-2-yl)-1,3-dihydro-imidazo[4,5-c]quinolin-2-one] | – | 0.057 µM
16 | CNc1ncc(-c2ccc3ncc4c(c3c2)n(-c2ccc(C(C)(C)O)nc2C)c(=O)n4C)cc1F [Example 31.1, 8-(5-Fluoro-6-methylamino-pyridin-3-yl)-1-[6-(1-hydroxy-1-methyl-ethyl)-2-methyl-pyridin-3-yl]-3-methyl-1,3-dihydro-imidazo[4,5-c]quinolin-2-one] | 0.023 µM | –
17 | Cc1nc(C(C)(C)O)ccc1-n1c(=O)n(C)c2cnc3ccc(-c4cncc(C(C)(C)C#N)c4)cc3c21 [Example 31.6, 2-(5-{1-[6-(1-Hydroxy-1-methyl-ethyl)-2-methyl-pyridin-3-yl]-3-methyl-2-oxo-2,3-dihydro-1H-imidazo[4,5-c]quinolin-8-yl}-pyridin-3-yl)-2-methyl-propionitrile] | 0.002 µM | –
18 | CCOc1ncc(-c2ccc3ncc4c(c3c2)n(-c2ncccc2C)c(=O)n4C)cn1 [Example 3.1, 8-(2-Ethoxy-pyrimidin-5-yl)-3-methyl-1-(3-methyl-pyridin-2-yl)-1,3-dihydro-imidazo[4,5-c]quinolin-2-one] | – | 0.41 µM
19 | Cn1c(=O)n(-c2cccnc2)c2c3cc(-c4ccc(CO)nc4)ccc3ncc21 [Example 5.1, 8-(6-Hydroxymethyl-pyridin-3-yl)-3-methyl-1-pyridin-3-yl-1,3-dihydro-imidazo[4,5-c]quinolin-2-one] | – | 0.074 µM
20 | CCOc1ccc(-c2ccc3ncc4c(c3c2)n(-c2cccnc2F)c(=O)n4C)cn1 [Example 6.1, 8-(6-Ethoxy-pyridin-3-yl)-1-(2-fluoro-pyridin-3-yl)-3-methyl-1,3-dihydro-imidazo[4,5-c]quinolin-2-one] | – | 0.021 µM
21 | CN(C)c1ccc(-c2ccc3ncc4c(c3c2)n(-c2cccnc2)c(=O)n4C)cn1 [Example 5.3, 8-(6-Dimethylamino-pyridin-3-yl)-3-methyl-1-pyridin-3-yl-1,3-dihydro-imidazo[4,5-c]quinolin-2-one] | – | 0.047 µM
22 | COCc1ncc(-c2ccc3ncc4c(c3c2)n(-c2ccc(N3CCC3)nc2C)c(=O)n4C)cc1OC(C)C [Example 23.2, 1-(6-Azetidin-1-yl-2-methyl-pyridin-3-yl)-8-(5-isopropoxy-6-methoxymethyl-pyridin-3-yl)-3-methyl-1,3-dihydro-imidazo[4,5-c]quinolin-2-one] | 0.033 µM | –
